From patent US8691761B2, “Somatostatin receptor 2 antagonists” (priority 2006, dated 2014) come the findings set out here.

Where two headings read alike, the source gives them in different places. Bridge positions count the residues as written; N and C are the ends. Square brackets hold non-standard residues; d marks the D form. Peptide text beside a SMILES is read from it. * marks the point of attachment. ξ: configuration not given here. Phe(4-NO2) = N[C@@H](Cc1ccc([N+](=O)[O-])cc1)C(=O)O; dPhe(4-NHCONH2) = NC(=O)Nc1ccc(C[C@@H](N)C(=O)O)cc1; Phe(4-NHCONH2) = NC(=O)Nc1ccc(C[C@H](N)C(=O)O)cc1; Trp(5-F) = N[C@@H](Cc1c[nH]c2ccc(F)cc12)C(=O)O; Phe(4-Cl) = N[C@@H](Cc1ccc(Cl)cc1)C(=O)O; ξDihydroorotoyl = O=C1CC(C(=O)*)NC(=O)N1; Phe(4-NH2) = Nc1ccc(C[C@H](N)C(=O)O)cc1; X1 = NC(=O)N[C@@H](Cc1ccc(Cl)cc1)C(=O)*; 2Nal = N[C@@H](Cc1ccc2ccccc2c1)C(=O)O

Test in all cases: Receptor autoradiography, displacement of 125I-[Leu8,D-Trp22,Tyr25]-SRIF-28 from membrane pellet sections
What all share (assay type): binding
(In general: In a radioligand displacement assay an active substance lowers the binding of a labelled ligand.)

The target in one assay is T1, hSSTR4 (Homo sapiens, UniProt P31391).
T1 construct: expressed in transfected cells; host or cells: CHO-K1 or CCL39 cells
As for the experimental part: (§1) Generally, recombinant cells expressing the receptor are washed and homogenized to prepare a crude protein homogenate in a suitable buffer. In a typical assay, an amount of protein from the cell homogenate is placed into a small volume of an appropriate assay buffer at an appropriate pH. Candidate substances, such as potential SRIF agonists and antagonists, are added to the admixture in convenient concentrations, and the interaction between the candidate substance and the receptor polypeptide is monitored.
(§2) In vitro Bioassay: The effects of the various somatostatin analogs were tested in vitro for their ability to bind to isolated cloned receptors expressed on CHO-K1 cells and CCL39 cells. The molecular cloning of the genes encoding multiple somatostatin receptor subtypes permitted the individual expression of these receptors in mammalian cells and the characterization of their respective pharmacological profiles.
(§3) CHO-K1 cells were grown in Ham's F-12 medium, and CCL39 cells were grown in Dulbecco's modified Eagle's medium/Ham's F-12(1:1) mix, supplemented with 10% fetal bovine serum, 100 U/ml penicillin and 100 μg/ml streptomycin, in humidified air containing 5% CO2 at 37° C. Cells were washed twice with and scraped into ice-cold 0.05 M Tris-HCl (pH 7.4), collected by centrifugation, and homogenized using a rotor/stator/system in the same buffer. After centrifugation at 120 g for 5 min at 4° C., the supernatant was collected and centrifuged again at 48,000 g for 30 min at 4° C. The resulting pellet was resuspended in ice-cold Tris buffer, transferred into a microfuge tube, and centrifuged at 20,000 g for 15 min at 4° C. After withdrawal of the supernatant, the membrane pellet was stored at −80° C.
(§4) Receptor autoradiography was performed on 20 μm thick cryostat sections of the membrane pellets, mounted on microscope slides, and then stored at −20° C. […] Increasing concentrations of the unlabeled peptide were used ranging from 0.1-1000 nM. […] IC50 values were calculated after quantification of the data using a computer-assisted image processing system as known in this art.
(§5) The numbers in parentheses indicate the number of times the particular binding test was carried out.
(§6) Receptor autoradiography. Cell membrane pellets were prepared as previously described, and stored at −80° C. Receptor autoradiography was performed on 20-μm thick cryostat (Microm HM 500, Walldorf, Germany) sections of the membrane pellets, mounted on microscope slides, and then stored at −20° C. […] After a brief dip in distilled water to remove excess salts, the sections were dried quickly and exposed for 1 week to Kodak BioMax MR film. IC50 values were calculated after quantification of the data using a computer-assisted image processing system as described previously. […] (Reubi, J. C. “In vitro identification of vasoactive intestinal peptide receptors in human tumors: Implications for tumor imaging.” J. Nucl. Med. 1995, 36, 1846-1853).
(§7) To investigate their ssts binding properties, the peptides were tested for their ability to bind to cryostat sections from membrane pellets of cells expressing the five human ssts (Table 3).

For a further assay, the target named is T2, hSSTR1 (Homo sapiens, UniProt P30872).
T2 construct: expressed in transfected cells; host or cells: CHO-K1 or CCL39 cells
To be noted: Table 3; mean ± SEM when N ≧ 3; read-out: sst1 binding affinity (IC50). As for the experimental part:
as §1, §2, §3, §4, §5, §6, §7

The target of another assay is T3, hSSTR5 (Homo sapiens, UniProt P35346).
T3 construct: expressed in transfected cells; host or cells: CHO-K1 or CCL39 cells
Conditions: Table 3; mean ± SEM when N ≧ 3; read-out: sst5 binding affinity (IC50). As for the experimental part:
as §1, §2, §3, §4, §5, §6, §7

The target of the next assay is T4, hSSTR3 (Homo sapiens, UniProt P32745).
T4 construct: expressed in transfected cells; host or cells: CHO-K1 or CCL39 cells
To be noted: Table 3; mean ± SEM when N ≧ 3; read-out: sst3 binding affinity (IC50). As for the experimental part:
as §1, §2, §3, §4, §5, §6, §7

A further assay addresses T5, hSSTR2 (Homo sapiens, UniProt P30874).
T5 construct: expressed in transfected cells; host or cells: CHO-K1 or CCL39 cells
To be noted: for IC50: Table 3, mean ± SEM when N ≧ 3. The procedure: as §1, §2, §3, §4, §5, §6, §7

Where [1] appears, read: Table 3, mean ± SEM when N ≧ 3, read-out: sst4 binding affinity (IC50).
[2] abbreviates: read-out: sst2 binding affinity (IC50).

T3 sequence (P35346 whole entry): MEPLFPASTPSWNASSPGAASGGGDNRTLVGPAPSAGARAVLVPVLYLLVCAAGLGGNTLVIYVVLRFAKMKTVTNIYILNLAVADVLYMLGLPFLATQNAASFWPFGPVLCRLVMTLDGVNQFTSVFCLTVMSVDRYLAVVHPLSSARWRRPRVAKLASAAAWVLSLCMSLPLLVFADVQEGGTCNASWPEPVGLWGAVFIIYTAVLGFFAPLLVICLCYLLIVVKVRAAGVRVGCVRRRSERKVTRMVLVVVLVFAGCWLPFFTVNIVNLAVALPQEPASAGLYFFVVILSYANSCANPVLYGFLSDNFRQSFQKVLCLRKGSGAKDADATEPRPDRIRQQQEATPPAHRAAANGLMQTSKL
T2 sequence (P30872 whole entry): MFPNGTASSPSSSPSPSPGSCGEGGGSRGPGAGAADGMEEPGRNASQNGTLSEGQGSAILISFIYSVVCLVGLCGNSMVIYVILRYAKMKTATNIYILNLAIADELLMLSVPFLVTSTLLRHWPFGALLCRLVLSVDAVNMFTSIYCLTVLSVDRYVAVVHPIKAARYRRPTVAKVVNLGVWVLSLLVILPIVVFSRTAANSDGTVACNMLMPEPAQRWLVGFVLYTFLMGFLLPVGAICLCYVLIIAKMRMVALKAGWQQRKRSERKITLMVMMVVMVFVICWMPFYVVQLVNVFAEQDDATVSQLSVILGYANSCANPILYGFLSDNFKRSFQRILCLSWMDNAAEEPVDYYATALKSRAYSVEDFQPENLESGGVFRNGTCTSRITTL
T5 sequence (P30874 whole entry): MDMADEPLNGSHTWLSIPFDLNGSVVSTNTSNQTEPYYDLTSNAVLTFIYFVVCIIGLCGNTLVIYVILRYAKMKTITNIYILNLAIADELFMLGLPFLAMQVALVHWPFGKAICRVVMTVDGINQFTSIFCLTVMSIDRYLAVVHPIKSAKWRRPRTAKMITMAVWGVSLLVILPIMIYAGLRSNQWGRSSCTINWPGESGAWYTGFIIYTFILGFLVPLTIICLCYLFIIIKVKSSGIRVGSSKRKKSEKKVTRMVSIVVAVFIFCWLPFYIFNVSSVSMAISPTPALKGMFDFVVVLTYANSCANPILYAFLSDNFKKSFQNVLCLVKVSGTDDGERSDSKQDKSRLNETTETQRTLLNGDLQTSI
T4 sequence (P32745 whole entry): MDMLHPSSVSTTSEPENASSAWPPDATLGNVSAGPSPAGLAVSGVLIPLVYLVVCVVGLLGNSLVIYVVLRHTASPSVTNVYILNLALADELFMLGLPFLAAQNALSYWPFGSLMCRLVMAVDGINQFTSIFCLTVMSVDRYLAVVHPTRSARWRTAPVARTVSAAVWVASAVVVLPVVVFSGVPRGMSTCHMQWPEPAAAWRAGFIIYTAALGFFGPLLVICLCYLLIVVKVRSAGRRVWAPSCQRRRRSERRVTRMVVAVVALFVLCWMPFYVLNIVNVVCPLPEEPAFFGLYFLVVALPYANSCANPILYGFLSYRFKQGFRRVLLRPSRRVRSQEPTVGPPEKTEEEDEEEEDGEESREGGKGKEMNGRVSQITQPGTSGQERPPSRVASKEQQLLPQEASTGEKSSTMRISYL
T1 sequence (P31391 whole entry): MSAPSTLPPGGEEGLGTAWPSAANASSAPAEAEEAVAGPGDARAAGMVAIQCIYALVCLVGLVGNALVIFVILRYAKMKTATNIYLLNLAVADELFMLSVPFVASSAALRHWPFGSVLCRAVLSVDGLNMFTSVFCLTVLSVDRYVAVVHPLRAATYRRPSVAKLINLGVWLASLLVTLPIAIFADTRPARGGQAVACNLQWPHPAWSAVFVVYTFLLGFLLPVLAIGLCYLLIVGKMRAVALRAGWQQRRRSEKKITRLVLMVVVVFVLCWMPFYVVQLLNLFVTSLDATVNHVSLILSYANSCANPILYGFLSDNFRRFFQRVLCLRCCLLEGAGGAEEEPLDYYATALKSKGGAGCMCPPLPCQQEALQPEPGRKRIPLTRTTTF

For the compound `C[C@@H](O)[C@@H]1NC(=O)[C@H](CCCCN)NC(=O)[C@@H](Cc2ccc(NC(N)=O)cc2)NC(=O)[C@H](Cc2ccc(NC(=O)C3CC(=O)NC(=O)N3)cc2)NC(=O)[C@H](NC(=O)[C@@H](N)Cc2ccc([N+](=O)[O-])cc2)CSSC[C@@H](C(=O)N[C@@H](Cc2ccc3ccccc3c2)C(N)=O)NC1=O` (stereo partly drawn) [compound 6, H2N-pNO2Phe-c[DCys-Aph(Hor)-DAph(Cbm)-Lys-Thr-Cys]-2Nal-NH2] (H-[Phe(4-NO2)][dC][Phe(4-NH2)](ξDihydroorotoyl)[dPhe(4-NHCONH2)]KTC[2Nal]-NH2; disulfide 2-7), the IC50 at hSSTR4 (setting [1]), on hSSTR1 and at hSSTR5 was more than 1000 nM each time.
Turning to `C[C@@H](O)[C@@H]1NC(=O)[C@H](CCCCN)NC(=O)[C@@H](Cc2c[nH]c3ccccc23)NC(=O)[C@@H](N(C)C(=O)c2ccccc2)NC(=O)[C@H](NC(=O)[C@@H](N)Cc2ccc(Cl)cc2)CSSC[C@@H](C(=O)N[C@@H](Cc2ccc3ccccc3c2)C(N)=O)NC1=O` [compound 10, H2N-Cpa-c[DCys-D-Agl(NMe.benzoyl)-DTrp-Lys-Thr-Cys]-2Nal-NH2], the IC50 (in general, the concentration that inhibits the measured activity by half) at hSSTR4 was 116 ± 47 nM; on hSSTR1, more than 1000 nM; on hSSTR5, 728 ± 272 nM; on hSSTR3, 102 ± 10 nM; on hSSTR2 (sst2 binding affinity (IC50)) it was 158 ± 37 nM.
In the case of `CC(C)C[C@@H]1NC(=O)[C@H](NC(=O)[C@@H](N)Cc2ccc(Cl)cc2)CSSC[C@@H](C(=O)N[C@@H](Cc2ccc3ccccc3c2)C(N)=O)NC(=O)[C@H]([C@@H](C)O)NC(=O)[C@H](CCCCN)NC(=O)[C@@H](Cc2c[nH]c3ccccc23)NC1=O` [compound 11, H2N-Cpa-c[DCys-Leu-DTrp-Lys-Thr-Cys]-2Nal-NH2] (H-[Phe(4-Cl)][dC]L[dW]KTC[2Nal]-NH2; disulfide 2-7), the IC50 was 908 ± 138 nM at hSSTR4 (setting [1]); more than 1000 nM at hSSTR1; 657 ± 299 nM at hSSTR5; 340 ± 77 nM at hSSTR3; 58 ± 21 nM at hSSTR2 (setting [2]). The “loss of binding affinity for sst2 as compared to 7” value at hSSTR2 turned out to be 10 fold.
Turning to `C[C@@H](O)[C@@H]1NC(=O)[C@H](CCCCN)NC(=O)[C@@H](Cc2c[nH]c3ccccc23)NC(=O)[C@H](Cc2ccc(NC(N)=O)cc2)NC(=O)[C@H](NC(=O)[C@H](Cc2ccc(Cl)cc2)NC(N)=O)CSSC[C@@H](C(=O)N[C@@H](Cc2ccc3ccccc3c2)C(N)=O)NC1=O` [compound 13, Cbm-Cpa-c[DCys-Aph(Cbm)-DTrp-Lys-Thr-Cys]-2Nal-NH2] (X1-[dC][Phe(4-NHCONH2)][dW]KTC[2Nal]-NH2; disulfide 1-6), the IC50 on hSSTR4 (setting [1]) was 136 ± 7.5 nM; at hSSTR1, more than 1000 nM; on hSSTR5, 111 ± 17 nM; at hSSTR3, 54 ± 15 nM; at hSSTR2 (setting [2]), 23 ± 4.3 nM.
The matching figures for `C[C@@H](O)[C@@H]1NC(=O)[C@H](CCCCN)NC(=O)[C@@H](Cc2c[nH]c3ccccc23)NC(=O)[C@H](Cc2ccc(NC(N)=O)cc2)NC(=O)[C@H](NC(=O)[C@@H](N)Cc2ccc(Cl)cc2)CSSC[C@@H](C(=O)N[C@@H](CC2CCCCC2)C(N)=O)NC1=O` [compound 18, H2N-Cpa-c[DCys-Aph(Cbm)-DTrp-Lys-Thr-Cys]-Cha-NH2]: more than 1000 nM, more than 1000 nM, 247 ± 66 nM, 255 ± 79 nM and 4.1 ± 0.9 nM.
As for `C[C@@H](O)[C@@H]1NC(=O)[C@H](CCCCN)NC(=O)[C@@H](Cc2c[nH]c3ccccc23)NC(=O)[C@H](Cc2ccc(NC(N)=O)cc2)NC(=O)[C@H](NC(=O)[C@@H](N)Cc2ccc(Cl)cc2)CSSC[C@@H](C(=O)N[C@H](Cc2ccc(NC(N)=O)cc2)C(N)=O)NC1=O` [compound 20, H2N-Cpa-c[DCys-Aph(Cbm)-DTrp-Lys-Thr-Cys]-DAph(Cbm)-NH2], the IC50 is 800 ± 295 nM on hSSTR4 (setting [1]); more than 1000 nM at hSSTR1; 191 ± 49 nM at hSSTR5; 328 ± 69 nM at hSSTR3; 5.4 nM at hSSTR2 (setting [2]).
In the same order, the values of `C[C@@H](O)[C@@H]1NC(=O)[C@H](CCCCN)NC(=O)[C@@H](Cc2c[nH]c3ccccc23)NC(=O)[C@H](Cc2ccc(NC(N)=O)cc2)NC(=O)[C@H](NC(=O)[C@@H](N)Cc2ccc(Cl)cc2)CSSC[C@@H](C(=O)N[C@@H](Cc2ccc(NC(N)=O)cc2)C(N)=O)NC1=O` [compound 21, H2N-Cpa-c[DCys-Aph(Cbm)-DTrp-Lys-Thr-Cys]-Aph(Cbm)-NH2] are 551 ± 151 nM, more than 1000 nM, 560 ± 144 nM, 336 ± 46 nM and 15 nM.
As to `C[C@@H](O)[C@@H]1NC(=O)[C@H](CCCCN)NC(=O)[C@@H](Cc2c[nH]c3ccccc23)NC(=O)[C@H](Cc2ccc(NC(N)=O)cc2)NC(=O)[C@H](NC(=O)[C@@H](N)Cc2ccc(Cl)cc2)CSSC[C@@H](C(=O)N[C@H](Cc2ccc(NC(N)=O)cc2)C(=O)NCC(=O)O)NC1=O` [compound 22, H2N-Cpa-c[DCys-Aph(Cbm)-DTrp-Lys-Thr-Cys]-DAph(Cbm)-GlyOH] (H-[Phe(4-Cl)][dC][Phe(4-NHCONH2)][dW]KTC[dPhe(4-NHCONH2)]G-OH; disulfide 2-7), the IC50 on hSSTR4 (setting [1]) was more than 1000 nM; at hSSTR1, more than 1000 nM; on hSSTR5, 810 ± 200 nM; at hSSTR3, 661 ± 115 nM; on hSSTR2 (setting [2]) it was 52 ± 4.7 nM.
With `CONC(=O)Nc1ccc(C[C@@H]2NC(=O)[C@H](NC(=O)[C@@H](N)Cc3ccc(Cl)cc3)CSSC[C@@H](C(=O)N[C@@H](Cc3ccc4ccccc4c3)C(N)=O)NC(=O)[C@H]([C@@H](C)O)NC(=O)[C@H](CCCCN)NC(=O)[C@@H](Cc3c[nH]c4ccccc34)NC2=O)cc1` [compound 23, H2N-Cpa-c[DCys-Aph(CONH—OCH3)-DTrp-Lys-Thr-Cys]-2Nal-NH2], the IC50 on hSSTR4 (setting [1]) was 883 ± 174 nM; at hSSTR1, more than 1000 nM; on hSSTR5, 313 ± 35 nM; at hSSTR3, 157 ± 49 nM; at hSSTR2 (setting [2]), 9.3 ± 0.9 nM.
The matching figures for `C[C@@H](O)[C@@H]1NC(=O)[C@H](CCCCN)NC(=O)[C@@H](Cc2c[nH]c3ccccc23)NC(=O)[C@H](Cc2ccc(NC(=O)NO)cc2)NC(=O)[C@H](NC(=O)[C@@H](N)Cc2ccc(Cl)cc2)CSSC[C@@H](C(=O)N[C@@H](Cc2ccc3ccccc3c2)C(N)=O)NC1=O` [compound 24, H2N-Cpa-c[DCys-Aph(CONH—OH)-DTrp-Lys-Thr-Cys]-2Nal-NH2]: 813 ± 152 nM, more than 1000 nM, 426 ± 189 nM, 120 ± 45 nM and 9.3 ± 1.4 nM.
In the case of `C[C@@H](O)[C@@H]1NC(=O)[C@H](CCCCN)NC(=O)[C@H](Cc2c[nH]c3ccc(F)cc23)NC(=O)[C@H](Cc2ccc(NC(N)=O)cc2)NC(=O)[C@H](NC(=O)[C@@H](N)Cc2ccc(Cl)cc2)CSSC[C@@H](C(=O)N[C@@H](Cc2ccc3ccccc3c2)C(N)=O)NC1=O` [compound 26, H2N-Cpa-c[DCys-Aph(Cbm)-5F-Trp-Lys-Thr-Cys]-2Nal-NH2] (H-[Phe(4-Cl)][dC][Phe(4-NHCONH2)][Trp(5-F)]KTC[2Nal]-NH2; disulfide 2-7), the IC50 at hSSTR4 (setting [1]) was 905 ± 132 nM; at hSSTR1, more than 1000 nM; at hSSTR5, 618 ± 248 nM; on hSSTR3, 90 ± 11 nM; at hSSTR2 (setting [2]) it was 23 ± 3.7 nM.
